The term solubility denotes how much of the substance goes into solution per volume. A higher solubility goes with much dissolved substance.

This data set in a line: Solubility in different cosolvents. The data set is classed as physicochemical. From the text: Solubility in Different Cosolvents: 5% tween-80: Dissolve 5 g tween-80 in 100 g purified water. 5% Sulfobutylether β-cyclodextrin: Dissolve 5 g Sulfobutylether β-cyclodextrin in 100 g purified water. 20% Sulfobutylether β-cyclodextrin: Dissolve 20 g Sulfobutylether β-cyclodextrin in 100 g purified water.

Setting [1] is: 0.2 mg/ml tween-80, aqueous with cosolvent or surfactant or cyclodextrin.
The mark [2] stands for this setting: 5% sulfobutylether β-cyclodextrin in purified water, aqueous with cosolvent or surfactant or cyclodextrin.
Setting [3] is: 5% tween-80 in purified water, aqueous with cosolvent or surfactant or cyclodextrin, 5% tween -80.
Where [4] appears, read: 20% sulfobutylether β-cyclodextrin in purified water, aqueous with cosolvent or surfactant or cyclodextrin.

Converted amounts (≈) assume the structure as drawn.

`OCc1cc([C@@H](O)CNCCCCCCOCCOCc2c(Cl)cccc2Cl)ccc1O` [VT, triphenylacetic acid-4-{(1R)-2-[(6-{2-[(2,6-dicholorobenzyl)oxy]ethoxy}hexyl)amino]-1-hydroxyethyl}-2-(hydroxymethyl)phenol (1:1)]: the solubility was found to be 62.6 µg/mL (≈ 129 µM) under setting [1]; 370 µg/mL (≈ 760 µM) under setting [2]; 1370 µg/mL (≈ 2820 µM) under setting [3]; 1400 µg/mL (≈ 2880 µM) under setting [4]; 53.7 µg/mL (≈ 110 µM) (purified water, water). Moreover, under “purified water”, the “solubility (in words)” value is reported as “almost insoluble”.

Consider `OC(c1ccccc1)(c1ccccc1)C12CC[N+](CCOCc3ccccc3)(CC1)CC2.[Br-]` [UB, 1-[2-(benzyloxy)ethyl]-4-(hydroxydiphenylmethyl)-1-azoniabicyclo[2.2.2]octane bromide], for which the solubility is, setting by setting: under setting [1], 582 µg/mL; under setting [2], 3560 µg/mL; under setting [3], 3540 µg/mL; under setting [4], 3450 µg/mL; (purified water, water) 618 µg/mL. For the same compound, the “solubility (in words)” value (purified water) is reported as “almost insoluble”.

These data come from patent US11304897B2, “Pharmaceutical formulation containing umeclidinium bromide and vilanterol trifenatate” (ANOVENT PHARMACEUTICAL (U.S.), LLC, priority 2020, dated 2022).
